Measured values taken from patent US6492414B1, “Methods and compositions for the treatment and prevention of lung disease” (Allergan, Inc., priority 1999, dated 2002).

Legend:
Sprague-Dawley rat pups = test: Alveolus formation (septation) in newborn rat pups, daily intraperitoneal injection, lung histology and morphometry; type: in vivo
From the text: This retinoid, termed AGN 193174, has a structure defined by the formula [drawing 1]
Following sacrifice, rat lungs were fixed and histological sections prepared essentially as described in Massaro et al., Am. J. Physiol. 270: L305 (1996), incorporated by reference herein. The histological sections were viewed and photographs taken under light microscopy.
The differences in alveolar dimensions between =treated and untreated rat pups were so pronounced, they were quantitated by measuring the distance between alveolar walls (Lm) and the surface-to-volume ratio (S/V) of the gas-exchange structures (septa). The Lm in cottonseed oil-treated rats was 80 μm±2.8 μm (N=4) compared to 110 μm±7.3 μm (N=3) in RARβ agonist-treated rats (N=3; P=0.03 by Mann Whitney nonparametric analysis). The S/V was 504 μm^−1±18 μm^−1(N=4) in cottonseed oil-treated rats compared to 365 μm^−1±23 μm^−1(N=3) in RARβ agonist-treated rats (P=0.03).

RARβ = test: RAR isotype activity stated for the retinoid ligand (RARβ)
RARγ = molecular target: T1, RARγ (Homo sapiens, UniProt P13631); test: RAR isotype activity stated for the retinoid ligand (RARγ)
T1 sequence (P13631 1-454): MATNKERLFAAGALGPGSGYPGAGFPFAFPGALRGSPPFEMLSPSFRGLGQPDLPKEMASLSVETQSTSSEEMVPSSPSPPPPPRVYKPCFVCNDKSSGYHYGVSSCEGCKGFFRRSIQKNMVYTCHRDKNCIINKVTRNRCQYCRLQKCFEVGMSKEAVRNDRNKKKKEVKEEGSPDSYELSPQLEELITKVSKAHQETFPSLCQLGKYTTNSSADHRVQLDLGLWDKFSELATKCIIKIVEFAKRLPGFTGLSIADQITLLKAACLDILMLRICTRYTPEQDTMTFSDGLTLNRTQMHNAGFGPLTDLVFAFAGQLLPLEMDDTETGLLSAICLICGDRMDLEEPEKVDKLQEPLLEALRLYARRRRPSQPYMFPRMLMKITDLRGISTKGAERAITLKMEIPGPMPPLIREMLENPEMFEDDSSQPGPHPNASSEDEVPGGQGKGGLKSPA

RAR receptors = test: Receptor class specificity, RAR versus RXR
[1] = system: rats treated with elastase; conditions: cited from earlier work
newborn rats = conditions: cited from earlier work
all RAR isotypes = conditions: cited from earlier work

SMILES	alveolar size and degree of septation in histological sections versus cottonseed oil alone (Sprague-Dawley rat pups; age 14 days, treated daily from age 3 through 13 days, FIGS. 1A and 1B)	Lung volume versus cottonseed oil-treated rats (Sprague-Dawley rat pups; rat pups, 500 micrograms per kg i.p. daily from age 3 to 13 days)	activity at RARβ (agonist) (RARβ)	activity at RARβ (antagonist (so in the source)) (RARβ)	activity at RARγ (RARγ)	specificity RAR versus RXR receptors (RAR receptors)	effect on elastase-induced destruction of alveolar walls [1]	effect on number of alveoli (newborn rats)	agonist activity at RAR isotypes (all RAR isotypes)
CC1(C)CC=C(c2cccs2)c2cc(C#Cc3ccc(C(=O)O)cc3)ccc21 [AGN 193174]	alveoli were larger, and the degree of sepatation less	the same in both rat groups	RARβ agonist activity	antagonist activity	antagonist activity	specific to RAR receptors and not to RXR receptors	–	–	–
CC1=C(/C=C/C(C)=C/C=C/C(C)=C/C(=O)O)C(C)(C)CCC1 [ATRA, all-trans-retinoic acid]	–	–	–	–	–	–	appeared to reverse this destruction	induced the formation of an increased number of alveoli in rats without enlarging the lung	an agonist of all RAR isotypes
